Test results reported in patent US5219855A, “Anxiolytic drug” (Mitsubishi Kasei Corporation, priority 1988, dated 1993).
Structures can show the parent of a compound that is named as a salt.

Target: T1, 5-HT1A receptor (Rattus norvegicus, UniProt P19327)
T1 construct: a rat brain was homogenized in Tris buffer and centrifuged; from tissue; host or cells: rat brain membrane preparation
T1 sequence (P19327 1-422): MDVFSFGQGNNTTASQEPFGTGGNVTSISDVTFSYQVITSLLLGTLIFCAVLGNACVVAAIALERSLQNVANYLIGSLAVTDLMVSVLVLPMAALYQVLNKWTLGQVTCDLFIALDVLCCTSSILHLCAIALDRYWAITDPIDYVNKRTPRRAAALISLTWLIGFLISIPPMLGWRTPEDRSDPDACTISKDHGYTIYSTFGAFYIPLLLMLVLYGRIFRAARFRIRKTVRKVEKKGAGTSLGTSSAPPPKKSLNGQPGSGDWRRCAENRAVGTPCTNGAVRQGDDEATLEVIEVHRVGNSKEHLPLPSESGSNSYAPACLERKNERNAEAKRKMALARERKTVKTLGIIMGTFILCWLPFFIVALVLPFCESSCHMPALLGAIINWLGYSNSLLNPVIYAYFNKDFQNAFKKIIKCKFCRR
Test: binding assay using [3H]8-OH-DPAT, rat brain membrane preparation
Procedure: To say more exactly, a rat brain was homogenized in Tris buffer and centrifuged. The resultant sediment was rehomogenized using Tris buffer and incubated at 37° C. for 10 minutes, followed by centrifugation. The resulting deposit was homogenized in Tris buffer containing pargyline, calcium chloride and ascorbic acid and subjected to binding assay (membrane preparation).
The assay was carried out by combining the membrane preparation with [3H]8-OH-DPAT and the test compound and then incubating at 37° C. for 10 minutes.
Subsequently, the mixture was immediately filtered through a Whatman GF/B filter and the radio-activity remaining on the filter was measured by liquid chromatography.
The binding capacity of the test compound to 5-HT1A receptor was expressed as Ki value calculated by the formula: [formula] wherein [L] denotes the concentration of [3H]8-OH-DPAT, kd represents the dissociation constant, and IC50 represents the concentration of the test compound required to produce a 50% inhibition of [3H]8-OH-DPAT binding.

SMILES | Ki [µM]
O=C1c2ccccc2S(=O)(=O)N1CCCCN1CCN(c2ncccn2)CC1 [Ipsapirone, 2-(4-(4-(2-pyrimidinyl)-1-piperazinyl)butyl)-1,2-benzisothiazol-3-(2H)one-1,1-dioxydehydrochloride, reference compound] | 0.0022
c1ccc(N2CCN(CCCOc3ccc4c(c3)OCO4)CC2)cc1 [No. 1] | 0.0047
c1ccc(N2CCN(CCCOc3ccc4c(c3)OCO4)CC2)nc1 [No. 2] | 0.0024
c1cnc(N2CCN(CCCOc3ccc4c(c3)OCO4)CC2)nc1 [No. 3] | 0.0101
c1ccc(N2CCN(CCCCOc3ccc4c(c3)OCO4)CC2)cc1 [No. 4] | 0.0101
Fc1ccc(N2CCN(CCCCOc3ccc4c(c3)OCO4)CC2)cc1 [No. 5] | 0.0332
FC(F)(F)c1cccc(N2CCN(CCCCOc3ccc4c(c3)OCO4)CC2)c1 [No. 6] | 0.0559
COc1cc(OCCCN2CCN(c3ccccc3)CC2)cc(OC)c1OC [No. 7] | 0.0057
COc1ccc(OCCCN2CCN(c3ccccc3OC)CC2)cc1OC [No. 8] | 0.0143
O=C(CCN1CCN(c2ccccc2)CC1)Nc1ccc2c(c1)OCO2 [No. 10] | 0.0254
c1ccc(N2CCN(CCCNc3ccc4c(c3)OCO4)CC2)cc1 [No. 11] | 0.018
Fc1ccc(N2CCN(CCCOc3ccc4c(c3)OCO4)CC2)cc1 [No. 12] | 0.016
FC(F)(F)c1cccc(N2CCN(CCCOc3ccc4c(c3)OCO4)CC2)c1 [No. 13] | 0.008
Cc1ccccc1N1CCN(CCCOc2ccc3c(c2)OCO3)CC1 [No. 14] | 0.101
c1ccc(N2CCN(CCCOc3ccc4c(c3)OCCO4)CC2)cc1 [No. 15] | 0.0057
c1ccc(N2CCN(CCOc3ccc4c(c3)OCO4)CC2)cc1 [No. 16] | 0.127
O=C(CCCN1CCN(c2ccccc2)CC1)c1ccc2c(c1)OCO2 [No. 17] | 0.0057
OC(CCCN1CCN(c2ccccc2)CC1)c1ccc2c(c1)OCO2 (stereo not shown) [No. 18] | 0.008
c1ccc(N2CCN(CCCCOc3ccc4c(c3)OCCO4)CC2)cc1 [No. 19] | 0.016
O=C(CCCCN1CCN(c2ccccc2)CC1)c1ccc2c(c1)OCO2 [No. 20] | 0.0101
c1ccc(N2CCN(CCCSc3ccc4c(c3)OCCO4)CC2)cc1 [No. 21] | 0.0712
[O-][S+](CCCN1CCN(c2ccccc2)CC1)c1ccc2c(c1)OCCCO2 (stereo not shown) [No. 22] | 0.0254
